According to ChEMBL document CHEMBL6115036, “Exploration of membrane-active cephalosporin derivatives as potent antibacterial agents against Staphylococcus aureus biofilms and persisters” (Eur J Med Chem, 2025):
Converted amounts (≈) assume the structure as drawn. The source made the active and inactive calls. The calls are words filed in the database; no cut-off is given here.

How the values were obtained:
Staphylococcus aureus [1] = test: Antimicrobial activity against Staphylococcus aureus incubated for 16 to 18 hrs by broth dilution assay; format: functional; conditions: time 16-18 hrs
Escherichia coli = test: Antimicrobial activity against Escherichia coli incubated for 16 to 18 hrs by broth dilution assay; format: functional; conditions: time 16-18 hrs
Staphylococcus aureus [2] = test: Induction of cytoplasmic membrane depolarization in Staphylococcus aureus assessed as increase in fluorescence intensity measured for 20 mins by DiSC3(5) dye based analysis; format: functional, organism-based
Staphylococcus aureus [3] = test: Induction of inner membrane permeability in Staphylococcus aureus assessed as increase in fluorescence intensity measured for 20 mins by PI dye based analysis; format: functional, organism-based
[4] = system: Stenotrophomonas maltophilia; test: Antimicrobial activity against Stenotrophomonas maltophilia incubated for 16 to 18 hrs by broth dilution assay; format: functional; conditions: time 16-18 hrs
Enterococcus faecalis = test: Antimicrobial activity against Enterococcus faecalis incubated for 16 to 18 hrs by broth dilution assay; format: functional; conditions: time 16-18 hrs
Staphylococcus aureus [5] = test: Induction of cytoplasmic membrane depolarization in Staphylococcus aureus assessed as increase in fluorescence intensity at 16 ug/ml measured for 20 mins by DiSC3(5) dye based analysis; format: functional, organism-based; conditions: dose 16.0 µg/ml
Staphylococcus aureus [6] = test: Induction of inner membrane permeability in Staphylococcus aureus assessed as increase in fluorescence intensity at 16 ug/ml measured for 20 mins by PI dye based analysis; format: functional, organism-based; conditions: dose 16.0 µg/ml
[7] = Hemolytic activity in sheep red blood cells incubated for 1 hr; format: toxicity, cell-based, Ovis aries, Erythrocyte
Staphylococcus aureus [8] = test: Induction of cytoplasmic membrane depolarization in Staphylococcus aureus assessed as increase in fluorescence intensity at 32 ug/ml measured for 20 mins by DiSC3(5) dye based analysis; format: functional, organism-based; conditions: dose 32.0 µg/ml
Staphylococcus aureus [9] = test: Induction of inner membrane permeability in Staphylococcus aureus assessed as increase in fluorescence intensity at 32 ug/ml measured for 20 mins by PI dye based analysis; format: functional, organism-based; conditions: dose 32.0 µg/ml
Staphylococcus aureus [10] = test: Antibacterial activity against rifampicin-induced persistant Staphylococcus aureus assessed as decrease in CFU at 100 times MIC measured for 10 hrs; format: functional, organism-based
Staphylococcus aureus [11] = test: Induction of resistance development in norfloxacin-resistant Staphylococcus aureus assessed as fold increase in MIC at sub-MIC measured after 20 passages relative to control; format: functional
Staphylococcus aureus [12] = test: Induction of resistance development in Staphylococcus aureus assessed as fold increase in MIC at sub-MIC measured after 20 passages relative to control; format: functional
Staphylococcus aureus [13] = test: Inhibition of biofilm formation in Staphylococcus aureus assessed as reduction in number of live bacterial count at 16 times MIC incubated for 24 hrs; format: functional
Staphylococcus aureus [14] = test: Disruption of cell membrane in Staphylococcus aureus assessed as nucleic acid leakage at 32 ug/ml measured after 2 hrs by fluorescence based analysis; format: functional, organism-based; conditions: dose 32.0 µg/ml
Staphylococcus aureus [15] = test: Disruption of cell membrane in Staphylococcus aureus assessed as protein leakage at 32 ug/ml measured after 2 hrs by fluorescence based analysis; format: functional, organism-based; conditions: dose 32.0 µg/ml
Staphylococcus aureus [16] = test: Antibacterial activity against Staphylococcus aureus assessed as effect on quiescent cells at 100 to 200 times MIC incubated for 24 hrs; format: functional, organism-based

Row | SMILES | MIC (Staphylococcus aureus [1]) [µg/mL] | MIC (Escherichia coli) [µg/mL] | MIC [4] [µg/mL] | MIC (Enterococcus faecalis) [µg/mL] | Activity (Staphylococcus aureus [5]) | Activity (Staphylococcus aureus [6]) | HC50 at 1 h [7] [µg/mL] | further results
1 | CCCCCCCC[n+]1ccc(SCC2=C(C(=O)O)N3C(=O)[C@@H](NC(=O)Cc4ccccc4)[C@H]3SC2)cc1.O=C([O-])C(F)(F)F | 0.063 | 128 | 128 | 4 | – | – | – | Activity (Staphylococcus aureus [2]): inactive; Activity (Staphylococcus aureus [3]): inactive
2 | CO[C@H]1/C=C/O[C@@]2(C)Oc3c(C)c(O)c4c(O)c(c(/C=N/N5CCN(C)CC5)c(O)c4c3C2=O)NC(=O)/C(C)=C\C=C\[C@H](C)[C@H](O)[C@@H](C)[C@@H](O)[C@@H](C)[C@H](OC(C)=O)[C@@H]1C | – | – | – | – | – | – | – | Activity (Staphylococcus aureus [10]): inactive
3 | O=C(O)c1cn(C2CC2)c2cc(N3CCNCC3)c(F)cc2c1=O [CIPROFLOXACIN] | – | – | – | – | – | – | – | fold change (FC) (Staphylococcus aureus [11]): 64; Activity (Staphylococcus aureus [10]): inactive
4 | CCn1cc(C(=O)O)c(=O)c2cc(F)c(N3CCNCC3)cc21 [NORFLOXACIN] | – | – | – | – | – | – | – | fold change (FC) (Staphylococcus aureus [12]): 64; fold change (FC) (Staphylococcus aureus [11]): 64
5 | CCCCCCCCNC(=O)c1ccc[n+](CC2=C(C(=O)O)N3C(=O)[C@@H](NC(=O)Cc4ccccc4)[C@H]3SC2)c1.[I-] | 0.031 | > 128 | > 128 | 8 | inactive | inactive | > 1280 | –
6 | CCCCCCCCCC[n+]1ccc(C(=O)N[C@@H]2C(=O)N3C(C(=O)OC(c4ccccc4)c4ccccc4)=C(COC(C)=O)CS[C@H]23)cc1.[I-] | 2 | 32 | 32 | 2 | – | – | – | Activity (Staphylococcus aureus [2]): Active; Activity (Staphylococcus aureus [3]): Active
7 | CN[C@H](CC(C)C)C(=O)N[C@H]1C(=O)N[C@@H](CC(N)=O)C(=O)N[C@H]2C(=O)N[C@H]3C(=O)N[C@H](C(=O)N[C@H](C(=O)O)c4cc(O)cc(O)c4-c4cc3ccc4O)[C@H](O)c3ccc(c(Cl)c3)Oc3cc2cc(c3O[C@@H]2O[C@H](CO)[C@@H](O)[C@H](O)[C@H]2O[C@H]2C[C@](C)(N)[C@H](O)[C@H](C)O2)Oc2ccc(cc2Cl)[C@H]1O [VANCOMYCIN] | – | – | – | 2 (≈ 1.38 µM) | – | – | > 1280 | Activity (Staphylococcus aureus [13]): ~1 10^5CFU/ml
8 | C[C@H]1COc2c(N3CCN(C)CC3)c(F)cc3c(=O)c(C(=O)O)cn1c23 [LEVOFLOXACIN ANHYDROUS] | – | – | – | – | – | – | – | fold change (FC) (Staphylococcus aureus [11]): 16
9 | CCCCCCCCCCCCCCNC(=O)c1cc[n+](CC2=C(C(=O)O)N3C(=O)[C@@H](NC(=O)Cc4ccccc4)[C@H]3SC2)cc1.[I-] | 4 | > 128 | > 128 | 16 | inactive | inactive | 151 | –
10 | CCCCCCCC[n+]1ccc(SCC2=C(C(=O)OCc3ccc(OC)cc3)N3C(=O)[C@@H](NC(=O)Cc4ccccc4)[C@H]3SC2)cc1.O=C([O-])C(F)(F)F | 0.063 | 64 | 128 | 8 | – | – | – | Activity (Staphylococcus aureus [2]): Active; Activity (Staphylococcus aureus [3]): Active
11 | CCCCCCCCCCCC[n+]1ccc(-c2cc[n+](CC3=C(C(=O)[O-])N4C(=O)[C@@H](NC(=O)Cc5ccccc5)[C@H]4SC3)cc2)cc1.O=C([O-])C(F)(F)F | 0.25 | 128 | > 128 | 4 | – | – | 333 | Activity (Staphylococcus aureus [14]): inactive; Activity (Staphylococcus aureus [15]): inactive; Activity (Staphylococcus aureus [8]): Active; Activity (Staphylococcus aureus [9]): Active
12 | CO/N=C(\C(=O)N[C@@H]1C(=O)N2C(C(=O)O)=C(COC(C)=O)CS[C@H]12)c1csc(N)n1 | – | – | – | – | – | – | – | Activity (Staphylococcus aureus [16]): inactive; Activity (Staphylococcus aureus [10]): inactive
13 | CC(=O)NC[C@H]1CN(c2ccc(N3CCOCC3)c(F)c2)C(=O)O1 [LINEZOLID] | – | – | – | – | – | – | – | fold change (FC) (Staphylococcus aureus [11]): 4

The next lines start with results.

Row | MIC (Staphylococcus aureus [1]) [µg/mL] | MIC (Escherichia coli) [µg/mL] | MIC [4] [µg/mL] | MIC (Enterococcus faecalis) [µg/mL] | SMILES | Activity (Staphylococcus aureus [5]) | Activity (Staphylococcus aureus [6]) | HC50 at 1 h [7] [µg/mL] | further results
14 | > 128 | > 128 | > 128 | > 128 | CCCCCCCC[n+]1ccc(C(=O)N[C@@H]2C(=O)N3C(C(=O)O)=C(COC(C)=O)CS[C@H]23)cc1.[I-] | – | – | – | Activity (Staphylococcus aureus [2]): inactive; Activity (Staphylococcus aureus [3]): inactive
15 | 2 | > 128 | > 128 | 16 | CCCCCCCCCCCCCCNC(=O)c1ccc[n+](CC2=C(C(=O)O)N3C(=O)[C@@H](NC(=O)Cc4ccccc4)[C@H]3SC2)c1.[I-] | inactive | inactive | 155 | –
16 | 0.5 | 128 | 128 | 16 | CCCCCCCCCC[n+]1ccc(-c2cc[n+](CC3=C(C(=O)OCc4ccc(OC)cc4)N4C(=O)[C@@H](NC(=O)Cc5ccccc5)[C@H]4SC3)cc2)cc1.[I-].[I-] | – | – | > 1280 | Activity (Staphylococcus aureus [8]): Active; Activity (Staphylococcus aureus [9]): Active
17 | 1 | 32 | 32 | 4 | CCCCCCCCCCCC[n+]1ccc(-c2cc[n+](CC3=C(C(=O)OCc4ccc(OC)cc4)N4C(=O)[C@@H](NC(=O)Cc5ccccc5)[C@H]4SC3)cc2)cc1.[I-].[I-] | – | – | 273 | Activity (Staphylococcus aureus [8]): Active; Activity (Staphylococcus aureus [9]): Active
18 | 16 | 64 | 32 | 8 | CCCCCCCC[n+]1ccc(C(=O)N[C@@H]2C(=O)N3C(C(=O)OC(c4ccccc4)c4ccccc4)=C(COC(C)=O)CS[C@H]23)cc1.[I-] | – | – | – | Activity (Staphylococcus aureus [2]): Active; Activity (Staphylococcus aureus [3]): Active
19 | 0.25 | > 128 | > 128 | 8 | CCCCCCCCCCCCNC(=O)c1cc[n+](CC2=C(C(=O)O)N3C(=O)[C@@H](NC(=O)Cc4ccccc4)[C@H]3SC2)cc1.[I-] | inactive | inactive | 254 | –
20 | 4 | 128 | 128 | 8 | CCCCCCCCCCCCCCCC[n+]1ccc(-c2cc[n+](CC3=C(C(=O)OCc4ccc(OC)cc4)N4C(=O)[C@@H](NC(=O)Cc5ccccc5)[C@H]4SC3)cc2)cc1.[I-].[I-] | – | – | 109 | Activity (Staphylococcus aureus [8]): Active; Activity (Staphylococcus aureus [9]): Active
21 | 0.063 | > 128 | > 128 | 16 | CCCCCCCCCCNC(=O)c1ccc[n+](CC2=C(C(=O)O)N3C(=O)[C@@H](NC(=O)Cc4ccccc4)[C@H]3SC2)c1.[I-] | inactive | inactive | 318 | –
22 | 64 | > 128 | > 128 | 128 | CCCCCC[n+]1ccc(C(=O)N[C@@H]2C(=O)N3C(C(=O)OC(c4ccccc4)c4ccccc4)=C(COC(C)=O)CS[C@H]23)cc1.[I-] | – | – | – | Activity (Staphylococcus aureus [2]): Active; Activity (Staphylococcus aureus [3]): Active
23 | 0.063 | > 128 | > 128 | 16 | CCCCCCCCNC(=O)c1cc[n+](CC2=C(C(=O)O)N3C(=O)[C@@H](NC(=O)Cc4ccccc4)[C@H]3SC2)cc1.[I-] | inactive | inactive | > 1280 | –
24 | 0.063 | > 128 | > 128 | 16 | CCCCCCCCCCNC(=O)c1cc[n+](CC2=C(C(=O)O)N3C(=O)[C@@H](NC(=O)Cc4ccccc4)[C@H]3SC2)cc1.[I-] | inactive | inactive | 321 | –
25 | > 128 | > 128 | > 128 | > 128 | CCCCCC[n+]1ccc(C(=O)N[C@@H]2C(=O)N3C(C(=O)O)=C(COC(C)=O)CS[C@H]23)cc1.[I-] | – | – | – | Activity (Staphylococcus aureus [2]): inactive; Activity (Staphylococcus aureus [3]): inactive
26 | 0.5 | > 128 | > 128 | 16 | CCCCCCCCCCCCNC(=O)c1ccc[n+](CC2=C(C(=O)O)N3C(=O)[C@@H](NC(=O)Cc4ccccc4)[C@H]3SC2)c1.[I-] | inactive | inactive | 291 | –
